Experimental findings from US9498483B2, “2,3,5-trisubstituted thiophene compounds and uses thereof” (priority 2010, dated 2016) are described below.

Assay [1] relates to HCV replicon I389luc-ubi-neo/NS3-3′/ET in ET (Huh-lucubineo-ET) cells. Briefly: Replicon assay (Biological Example 2), luciferase readout. Type of assay: cell-based. The note with it: Hepatitis C virus. In outline:
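EC50 values come from Hill fits of % inhibition of replicon-driven firefly luciferase, relative to no-compound wells. Compounds were serially diluted (10 points, 3-fold, 0.1 nM–50 μM final, 0.5% DMSO) onto ET replicon cells and read after 48 h.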
(Replicon systems follow genome replication, usually without infectious particles.)

Another assay has as its target T1, HCV polymerase (Hepatitis C virus genotype 1b, UniProt Q9WMX2).
T1 construct: (His)6 (C); made in house; host or cells: XL-1 cells (E. coli, by own knowledge)
Briefly: Polymerase assay of Biological Example 1 (IC50 values of Table 3). It counts as biochemical. Particulars: IC50 values of Table 3, polymerase assay of Biological Example 1; read-out: NS5B-enzyme3.

Where [2] appears, read: ET cells, luciferase activity 48 hours after compound.

Molecules are shown by their SMILES.

Turning to `COc1ccc(S(=O)(=O)N2CC(=O)N(c3cc(-c4ccccc4)sc3C(=O)O)C(C3CCCCC3)C2)cc1OC` (centres unmarked) [Compound 102, 3-[2-Cyclohexyl-4-(3,4-dimethoxy-benzenesulfonyl)-6-oxo-piperazin-1-yl]-5-phenyl-thiophene-2-carboxylic acid], the IC50 in assay [1] (between 100 nM and 5.0 uM) is 100 to 5000 nM; at HCV polymerase, 4.5 nM.
Consider `COc1ccc(S(=O)(=O)N2CC(=O)N(c3cc(-c4ccccc4)sc3C(=O)O)C(C3CCCCC3)C2)cc1` (centres unmarked) [Compound 103, 3-[2-Cyclohexyl-4-(4-methoxy-benzenesulfonyl)-6-oxo-piperazin-1-yl]-5-phenyl-thiophene-2-carboxylic acid], for which the IC50 in assay [1] (between 100 nM and 5.0 uM) was 100 to 5000 nM; on HCV polymerase it was 2 nM.
As for `O=C(O)c1sc(-c2ccccc2)cc1N1C(=O)CN(S(=O)(=O)c2cccc(F)c2)CC1C1CCCCC1` (centres unmarked) [Compound 104, 3-[2-Cyclohexyl-4-(3-fluoro-benzenesulfonyl)-6-oxo-piperazin-1-yl]-5-phenyl-thiophene-2-carboxylic acid], the IC50 in assay [1] (between 100 nM and 5.0 uM) was 100 to 5000 nM; at HCV polymerase, 21 nM.
For `CC(C)(C)c1ccc(S(=O)(=O)N2CC(=O)N(c3cc(-c4ccccc4)sc3C(=O)O)C(C3CCCCC3)C2)cc1` (centres unmarked) [Compound 105, 3-[4-(4-tert-Butyl-benzenesulfonyl)-2-cyclohexyl-6-oxo-piperazin-1-yl]-5-phenyl-thiophene-2-carboxylic acid], in that order: 100 to 5000 nM and 2 nM.
As for `O=C(O)c1sc(-c2ccccc2)cc1N1C(=O)CN(S(=O)(=O)c2ccc(OC(F)F)cc2)CC1C1CCCCC1` (centres unmarked) [Compound 106, 3-[2-Cyclohexyl-4-(4-difluoromethoxy-benzenesulfonyl)-6-oxo-piperazin-1-yl]-5-phenyl-thiophene-2-carboxylic acid], the IC50 was 100 to 5000 nM in assay [1] (between 100 nM and 5.0 uM); 14 nM at HCV polymerase.
Regarding `COc1cccc(S(=O)(=O)N2CC(=O)N(c3cc(-c4ccccc4)sc3C(=O)O)[C@H](C3CCCCC3)C2)c1` [Compound 107, 3-[(R)-2-Cyclohexyl-4-(3-methoxy-benzenesulfonyl)-6-oxo-piperazin-1-yl]-5-phenyl-thiophene-2-carboxylic acid], the IC50 in assay [1] (between 100 nM and 5.0 uM) was 100 to 5000 nM; at HCV polymerase, below 1 nM.
The corresponding values for `O=C(O)c1sc(-c2ccccc2)cc1N1C(=O)CN(S(=O)(=O)c2cccnc2)CC1C1CCCCC1` (centres unmarked) [Compound 108, 3-[2-Cyclohexyl-6-oxo-4-(pyridine-3-sulfonyl)-piperazin-1-yl]-5-phenyl-thiophene-2-carboxylic acid] are 100 to 5000 nM and 37 nM.
The corresponding values for `O=C(O)c1sc(-c2ccccc2)cc1N1C(=O)CN(S(=O)(=O)c2ccc(F)cc2)CC1C1CCCCC1` (centres unmarked) [Compound 109, 3-[2-Cyclohexyl-4-(4-fluoro-benzenesulfonyl)-6-oxo-piperazin-1-yl]-5-phenyl-thiophene-2-carboxylic acid] are 100 to 5000 nM and 30 nM.
Take `O=C(O)c1sc(-c2ccccc2)cc1N1C(=O)CN(S(=O)(=O)c2cccc3ccccc23)CC1C1CCCCC1` (centres unmarked) [Compound 110, 3-[2-Cyclohexyl-4-(naphthalene-1-sulfonyl)-6-oxo-piperazin-1-yl]-5-phenyl-thiophene-2-carboxylic acid]: the values for the IC50 (in assay [1] (setting [2]); at HCV polymerase) were at least 5000 nM and 183 nM, respectively.
The corresponding values for `O=C(O)c1sc(-c2ccccc2)cc1N1C(=O)CN(S(=O)(=O)c2cccc(Cl)c2Cl)CC1C1CCCCC1` (centres unmarked) [Compound 111, 3-[2-Cyclohexyl-4-(2,3-dichloro-benzenesulfonyl)-6-oxo-piperazin-1-yl]-5-phenyl-thiophene-2-carboxylic acid] are at least 5000 nM and 243 nM.
In the case of `O=C(O)c1sc(-c2ccccc2)cc1N1C(=O)CN(S(=O)(=O)C2CCN(C(=O)OCc3ccccc3)CC2)CC1C1CCCCC1` (centres unmarked) [Compound 112, 4-[4-(2-Carboxy-5-phenyl-thiophen-3-yl)-3-cyclohexyl-5-oxo-piperazine-1-sulfonyl]-piperidine-1-carboxylic acid benzyl ester], the IC50 in assay [1] (setting [2]) was at least 5000 nM; on HCV polymerase, 173 nM.
Consider `CC(C)(C)c1ccc(-c2cc(N3C(=O)CCCC3C3CCCCC3)c(C(=O)O)s2)cc1` (centres unmarked) [Compound 113, 5-(4-tert-Butyl-phenyl)-3-(2-cyclohexyl-6-oxo-piperidin-1-yl)-thiophene-2-carboxylic acid], for which the IC50 in assay [1] (between 100 nM and 5.0 uM) is 100 to 5000 nM; at HCV polymerase it was 44 nM.
For `COc1ccc(-c2cc(N3C(=O)CCCC3C3CCCCC3)c(C(=O)O)s2)cc1` (centres unmarked) [Compound 114, 3-(2-Cyclohexyl-6-oxo-piperidin-1-yl)-5-(4-methoxy-phenyl)-thiophene-2-carboxylic acid], in that order: 100 to 5000 nM and 90 nM.
The corresponding values for `CC(C)(C)C#Cc1cc(N2C(=O)C(CCCO)(CCCO)OC[C@H]2C2CCCCC2)c(C(=O)O)s1` [Compound 115, 3-[(R)-5-Cyclohexyl-2,2-bis-(3-hydroxy-propyl)-3-oxo-morpholin-4-yl]-5-(3,3-dimethyl-but-1-ynyl)-thiophene-2-carboxylic acid] are 100 to 5000 nM and 4 nM.
For `CCOc1ccc(-c2cc(N3C(=O)CCCC3C3CCCCC3)c(C(=O)O)s2)cc1` (centres unmarked) [Compound 116, 3-(2-Cyclohexyl-6-oxo-piperidin-1-yl)-5-(4-ethoxy-phenyl)-thiophene-2-carboxylic acid], the IC50 in assay [1] (between 100 nM and 5.0 uM) was 100 to 5000 nM; at HCV polymerase, 64 nM.
As for `O=C(O)c1sc(-c2ccc(C(F)(F)F)cc2)cc1N1C(=O)CCCC1C1CCCCC1` (centres unmarked) [Compound 117, 3-(2-Cyclohexyl-6-oxo-piperidin-1-yl)-5-(4-trifluoromethyl-phenyl)-thiophene-2-carboxylic acid], the IC50 in assay [1] (setting [2]) was at least 5000 nM; on HCV polymerase it was 739 nM.
The corresponding values for `C[C@@H]1CCCN1c1ccc(S(=O)(=O)N2CC(=O)N(c3cc(-c4ccccc4)sc3C(=O)O)C(C3CCCCC3)C2)cn1` (stereo partly drawn) [Compound 118, 3-{2-Cyclohexyl-4-[6-((R)-2-methyl-pyrrolidin-1-yl)-pyridine-3-sulfonyl]-6-oxo-piperazin-1-yl}-5-phenyl-thiophene-2-carboxylic acid] are at most 100 nM and 2 nM.
For `C[C@H]1CCCN1c1ccc(S(=O)(=O)N2CC(=O)N(c3cc(-c4ccccc4)sc3C(=O)O)C(C3CCCCC3)C2)cn1` (stereo partly drawn) [Compound 119, 3-{2-Cyclohexyl-4-[6-((S)-2-methyl-pyrrolidin-1-yl)-pyridine-3-sulfonyl]-6-oxo-piperazin-1-yl}-5-phenyl-thiophene-2-carboxylic acid], in that order: at most 100 nM and 9 nM.
The corresponding values for `O=C(O)c1sc(-c2ccccc2)cc1N1C(=O)CN(S(=O)(=O)c2ccc(N3CC[C@@H](F)C3)nc2)CC1C1CCCCC1` (stereo partly drawn) [Compound 120, 3-{2-Cyclohexyl-4-[6-((R)-3-fluoro-pyrrolidin-1-yl)-pyridine-3-sulfonyl]-6-oxo-piperazin-1-yl}-5-phenyl-thiophene-2-carboxylic acid] are at most 100 nM and 6 nM.
As to `O=C(O)c1sc(-c2ccccc2)cc1N1C(=O)CN(S(=O)(=O)c2ccc(N3CC[C@H](F)C3)nc2)CC1C1CCCCC1` (stereo partly drawn) [Compound 121, 3-{2-Cyclohexyl-4-[6-((S)-3-fluoro-pyrrolidin-1-yl)-pyridine-3-sulfonyl]-6-oxo-piperazin-1-yl}-5-phenyl-thiophene-2-carboxylic acid], the values for the IC50 (in assay [1] (setting [2]); at HCV polymerase) were at most 100 nM and 7 nM, respectively.
The corresponding values for `C[C@@H]1C[C@@H](O)CN1c1ccc(S(=O)(=O)N2CC(=O)N(c3cc(-c4ccccc4)sc3C(=O)O)C(C3CCCCC3)C2)cn1` (stereo partly drawn) [Compound 122, 3-{2-Cyclohexyl-4-[6-((2R,4R)-4-hydroxy-2-methyl-pyrrolidin-1-yl)-pyridine-3-sulfonyl]-6-oxo-piperazin-1-yl}-5-phenyl-thiophene-2-carboxylic acid] are at most 100 nM and 2 nM.
For `O=C(O)c1sc(-c2ccccc2)cc1N1C(=O)CN(S(=O)(=O)c2ccc(N3CC[C@@H](O)C3)nc2)CC1C1CCCCC1` (stereo partly drawn) [Compound 123, 3-{2-Cyclohexyl-4-[6-((R)-3-hydroxy-pyrrolidin-1-yl)-pyridine-3-sulfonyl]-6-oxo-piperazin-1-yl}-5-phenyl-thiophene-2-carboxylic acid], in that order: at most 100 nM and 2 nM.
Regarding `O=C(O)c1sc(-c2ccccc2)cc1N1C(=O)CN(S(=O)(=O)c2ccc(N3CC[C@H](O)C3)nc2)CC1C1CCCCC1` (stereo partly drawn) [Compound 124, 3-{2-Cyclohexyl-4-[6-((S)-3-hydroxy-pyrrolidin-1-yl)-pyridine-3-sulfonyl]-6-oxo-piperazin-1-yl}-5-phenyl-thiophene-2-carboxylic acid], the IC50 is 100 to 5000 nM in assay [1] (between 100 nM and 5.0 uM); 4 nM on HCV polymerase.
For the molecule `O=C(O)c1sc(-c2ccccc2)cc1N1C(=O)CN(S(=O)(=O)c2ccc(N3C4CCC3CC4)nc2)CC1C1CCCCC1` (centres unmarked) [Compound 125, 3-{4-[6-(7-Aza-bicyclo[2.2.1]hept-7-yl)-pyridine-3-sulfonyl]-2-cyclohexyl-6-oxo-piperazin-1-yl}-5-phenyl-thiophene-2-carboxylic acid], the IC50 in assay [1] (setting [2]) was at most 100 nM; on HCV polymerase, 18 nM.
For `C[C@@H]1CCC[C@H](C)N1c1ccc(S(=O)(=O)N2CC(=O)N(c3cc(-c4ccccc4)sc3C(=O)O)C(C3CCCCC3)C2)cn1` (stereo partly drawn) [Compound 126, 3-[2-Cyclohexyl-4-((2S,6R)-2,6-dimethyl-3,4,5,6-tetrahydro-2H-[1,2′]bipyridinyl-5′-sulfonyl)-6-oxo-piperazin-1-yl]-5-phenyl-thiophene-2-carboxylic acid], in that order: at most 100 nM and 11 nM.
